Measured values as given in patent US12268676B2, “Antiviral applications of picolinic acid and its derivatives” (INDIAN INSTITUTE OF SCIENCE, priority 2021, dated 2025).
Several values for one entry are separate records, joined by “and”; a condition that tells them apart may be missing. Identical values can stand only once. Like-named read-outs stand apart in the source and are kept apart here.

What was measured:
[1] = test system: Dengue virus (DENV Luc); test: microbe, parasite or virus in culture; format: cell-based; details: A549, 48 h, read-out: inhibition (luciferase, normalized with untreated control)
[2] = test system: AAV6-GFP particles; test: AAV6-GFP infection of HEK cells, flow cytometry; format: cell-based, Adeno Associated Virus-6; details: 2 mM PA, all virus volumes tested, 48 hr p.i.
[3] = test system: PR8 WT virus (strain A/Puerto Rico/8/1934 H1N1); format: cell-based, Influenza A virus
[4] = test system: IAV PR8 WT strain; format: in vivo, BALB/c mice
[5] = test system: Zika Luc; test: microbe, parasite or virus in culture; format: cell-based; details: A549, 48 h, read-out: inhibition (luciferase, normalized with untreated control)
[6] = test system: Rota virus RRV strain; test: Rotavirus RRV infection of HEK cells, IFA for VP6; format: cell-based; details: HEK cells pre-treated with 2 mM PA, 12 hr
Description: Percentage positive cells was quantified using ImageJ/Fiji.
Rotavirus RRV infection: A working concentration of Rota virus was prepared by diluting the virus stock 2-fold with complete DMEM containing a final concentration of 2 μg/mL TPCK trypsin. The mixture was incubated at 37° C. for 30 min and further diluted 2-fold in DMEM without serum. This mixture was then used to infect HEK cells that were pre-treated for 3 hr with 2 mM PA. A volume of 100 μL per well, in a 24 well plate was used for 1 hr adsorption, after which the wells were topped up with 400 μL serum free media containing PA. After 12 hr, cells were fixed with 4% formalin and immunolabeled with primary mouse anti VP6, and anti-mouse secondary Alexa Fluor 488 antibodies to detect virus infected cells by IFA.

[7] = test system: Japanese Encephalitis Virus (JEV) clinical strain P20778; test: JEV infection, western blot of flavivirus envelope protein; format: cell-based; details: 2 mM PA
[8] = test system: SARS-CoV-2 spike protein; test: SARS-CoV-2 spike induced syncytia assay; format: cell-based; details: Severe acute respiratory syndrome coronavirus 2, Vero C1008, 24 h, read-out: inhibition of syncytia (area, percentage of untreated control)
[9] = test system: Herpes Simplex virus 1 (HSV1 Luc); test: microbe, parasite or virus in culture; format: cell-based; details: Human alphaherpesvirus 1, A549, 48 h, read-out: inhibition in reporter virus assay
[10] = test system: PR8 WT virus; format: in vivo, BALB/c mice; details: for reduction of infectious virus titer in lung homogenates (plaque assay): 20 mg/kg PA prophylactically
[11] = test system: clathrin mediated endocytosis; test: Transferrin uptake assay, flow cytometry; details: A549, 2 mM PA, 1 hr pulse with 25 μg/mL Tf647
[12] = test system: wild type Zika virus (ZIKV) Cambodia strain; test: ZIKV infection, western blot of flavivirus envelope protein; format: cell-based; details: 2 mM PA, 0.1 MOI, 48 hr post infection (FIG. 7L)
[13] = test system: Coxsackie virus B3; test: Coxsackie virus B3 infection of HeLa cells, western blot for VP1; format: cell-based
Description: The effects of PA against non-enveloped viruses were tested to see if PA would be effective against non-enveloped viruses as well. To this end, HeLa cells were either pre-treated for 3 hr with 2 mM PA, infected with 10 MOI Coxsackie virus B3 in presence of PA and collected 3 hr later (−3 hr); or treated during infection (T0); or virus and PA were incubated together for 1 hr and used for infection (1 hr virus+PA).
Coxsackie virus B3 infection: To study early effects of PA, HeLa cells were pre-treated for 3 hr, infected with 10 MOI CVB3, and collected at 3 hr post infection. Alternatively, cells were infected and treated simultaneously (T0) and collected after 3 hr. Also, a mixture of virus and drug incubated for 1 hr (1 hr PA+Virus) was used for infection to test the effects of PA on virus particles. No additional drug was added here post infection. Expression levels of VP1 protein was then detected by western blot analysis.

[14] = test system: Influenza A viruses (IAVs); test: microbe, parasite or virus in culture; format: cell-based, Influenza A virus
[15] = test system: TM4 mycobacteriophage; test: Effect of drug on TM4 mycobacteriophage; format: cell-based; details: 10 MOI
Description: Since most of the naked viruses tested were not inhibited by PA, whether PA would be effective against TM4 mycobacteriophages. M. smegmatis cells in a 48 well plate were treated with increasing concentrations of PA as indicated and OD600 measurements were taken periodically up to 24 hr. […] For the antiviral assay, 1 mM PA was either added at the start of experiment or 3 hr prior to infection. In either case, there was no protection from TM4 mycobacteriophage induced cell death (FIG. 12, panel G).
Effect of drug on TM4 mycobacteriophage: To study the effect of the drug on TM4 phage growth and activity, 7H9 broth supplemented with ADC and CaCl2 was prepared and inoculated with 100 μL of log-phase secondary bacterial culture (OD 1-2) per 5 mL of the media. 1 mM of the drug was added to culture tubes at the appropriate time (either at the start of the experiment or 3 hr before adding the phage in the mid-log phase). The cultures were then incubated at 37° C. with rotary shaking at 180 pm. For phage-treated samples, a 10 MOI TM4 mycobacteriophage was added at a specified interval of the mid-log phase. […] Readings were taken using a spectrophotometer (Jenway 7205 UV/Visible Spectrophotometer) at 600 nm against a media blank.

SMILES: O=C(O)c1ccccn1 [PA, pyridine-2-carboxylic acid]
- inhibition at 2000 µM [1]: > 90%
- decrease in GFP positive cells [2]: 5-10%
- decrease in NP positive cells [3]: no decrease
- decrease in number of NP positive cells compared to virus control [3]: 75% and 40%
- expression levels of virus NP by western blot, virus control vs PA treated [3]: no difference
- decrease in virus titre from lung tissue (plaque assay) compared to untreated ([4]; 20 mg PA, 72 hr post infection): Over 10 fold
- body weight loss after IAV infection ([4]; animals infected in the presence of 100 mg PA): 30%
- body weight loss after IAV infection ([4]; mouse, in vivo): minimal loss in body weight
- decrease in survival rate ([4]; mouse, in vivo): significantly reduced
- inhibition at 2000 µM [5]: > 90%
- effect on virus entry (VP6 positive cells, IFA) [6]: did not have any effects
- flavivirus envelope protein by western blot ([7]; 0.1 MOI, 48 hr post infection (FIG. 7K)): inhibition
- decrease in the flavivirus envelope protein expression (western blot) ([7]; VeroE6 cells, 48 hr post infection, normalized against actin): 0.75 fold
- inhibition at 1000 µM [8]: 70%
- inhibition at 2000 µM [8]: 80%
- inhibition at 2000 µM [9]: 80 to 90%
- reduction of infectious virus titer in lung homogenates (plaque assay) ([10]; IP route): > 10 fold
- reduction of infectious virus titer in lung homogenates (plaque assay) ([10]; oral route): > 10 fold
- survival ([10]; IP prophylactic group, 7 days p.i.): 80%
- bodyweight rescue compared to virus control ([10]; IP prophylactic group, day 7): > 10%
- rescue of total animal body weight ([10]; all groups): Over 90%
- abrogation of lung virus titers, IP vs oral route ([10]; mouse, in vivo): more effective
- clinical scores of histology sections ([10]; mouse, in vivo): recovery
- lung histology analysis ([10]; mouse, in vivo): marked reduction in pathology
- animal survival ([10]; mouse, in vivo, ip): completely rescue
- lung histology analysis ([10]; mouse, in vivo, po): best rescue
- cellular uptake of transferrin (Tf647 positive cells) [11]: did not show any differences
- flavivirus envelope protein by western blot [12]: inhibition
- effect on virus entry (VP1 western blot) ([13]; incubation of virus with drug 1 hr prior to infection): did not have any effects
- effect on virus entry (VP1 western blot) ([13]; pre-treatment 3 hr with 2 mM PA, 10 MOI): did not have any effects
- effect on virus entry (VP1 western blot) ([13]; treatment at the time of infection (T0)): did not have any effects
- reduction in virus titer [14]: 3 fold
- inhibition at 2000 µM ([14]; Influenza A virus, PR8, MDCK2, 48 h, read-out: maximum inhibition of infectious virus (plaque assay)): 50%
- protection from TM4 mycobacteriophage induced cell death ([15]; 1 mM PA added 3 hr prior to infection): no protection
- protection from TM4 mycobacteriophage induced cell death ([15]; 1 mM PA added at the start of experiment): no protection
